In publication PMC5557053 (European journal of clinical pharmacology, 2011):
Where “and” joins values, the source holds several entries; their conditions need not be identical. Identical values can stand only once.

Legend:
[1] = system: OCT1; conditions: cited from earlier work
[2] = system: efflux transporters (ABCB1, ABCG2); conditions: CML cells; cited from earlier work
[3] = clinical; conditions: human, serum, oral
[4] = Exposure-safety: logistic regression against model-predicted AUC0–24; type: in vivo, human; conditions: for predicted incidence of all grade total bilirubin elevation: median baseline total bilirubin 6.84 μmol/L; for AUC(0-t): human, serum, oral
[5] = human, in vivo
[6] = system: BCR-ABL transcript level; experiment: Exposure-efficacy: BCR-ABL ratio and MMR at 12 months by observed Cmin quartile; type: in vivo, human
[7] = Population PK analysis, nonlinear mixed-effect modeling
[8] = population mean (standard error)

## Cc1cn(-c2cc(NC(=O)c3ccc(C)c(Nc4nccc(-c5cccnc5)n4)c3)cc(C(F)(F)F)c2)cn1 [nilotinib]
[1]
  dependence of movement into CML cells on influx transporter OCT1: independent of the influx transporter OCT1
[2]
  role of efflux transporters (ABCB1, ABCG2) in cellular retention: none of them appear to play an important role
[3]
  Vd: 58 L
  clearance: 350 mL/min
[4]; AUC0–24 16 μg·h/mL
  predicted incidence of all grade abnormalities, hemoglobin: 31.7%
  predicted incidence of all grade abnormalities, lipase: 17.4%
[4]; AUC0–24 16 μg∙h/mL
  predicted incidence of all grade total bilirubin elevation: 29.4%
[4]; AUC0–24 24 μg·h/mL
  predicted incidence of all grade abnormalities, hemoglobin: 36.4%
  predicted incidence of all grade abnormalities, lipase: 23.8%
[4]; AUC0–24 24 μg∙h/mL
  predicted incidence of all grade total bilirubin elevation: 46.5%
[4]; AUC0–24 32 μg·h/mL
  predicted incidence of all grade abnormalities, hemoglobin: 39.9%
  predicted incidence of all grade abnormalities, lipase: 29.3%
[4]; AUC0–24 32 μg∙h/mL
  predicted incidence of all grade total bilirubin elevation: 59.5%
[4]
  AUC(0-t): 25900 ng·h/mL
[4]; male, 300 mg
  AUC(0-t): 24000 ng·h/mL
[5]
  higher exposure in 400 mg twice-daily arm than in 300 mg twice-daily arm: 11.5%
[6]; Q2/3 829–1,569 ng/mL vs Q1
  MMR difference vs Q1 (95% CI): 1.7 (−10.4, 13.8)
[6]; Q4 >1,569 ng/mL vs Q1
  MMR difference vs Q1 (95% CI): 4.6 (−9.3, 18.6)
[6]; Q4 >1,569 ng/mL vs Q2/3
  MMR difference vs Q2/3 (95% CI): 2.9 (−9.0, 14.8)
[6]; average Cmin Q1 <829 ng/mL, evaluable patients n observed 96
  MMR at 12 months: 45 (46.9) n (%)
[6]; average Cmin Q2/3 829–1,569 ng/mL, evaluable patients n observed 208
  MMR at 12 months: 101 (48.6) n (%)
[6]; average Cmin Q4 >1,569 ng/mL, evaluable patients n observed 101
  MMR at 12 months: 52 (51.5) n (%)
[7]; AST increase from ULN to 1.5 × ULN
  predicted decrease in CL: 1%
[7]; AST increase from ULN to 2 × ULN
  predicted decrease in CL: 3%
[7]; estimate (standard error)
  σ1, proportional random error: 29.8 (0.917) %
  σ2, additive random error: 110 (17.4) ng/mL
[7]; final model, % (SE)
  Interindividual variability of CL: 37.6% and 37.6 (1.4) %
  Interindividual variability of V1: 79.2% and 79.2 (14.2) %
  Interindividual variability of V2: 98.9% and 98.9 (19.7) %
[7]; model without covariates
  interindividual variability of CL before addition of significant covariates: 40.0%
[7]; [8]
  D1, zero-order input duration: 9.88 (0.112) h
  V2, volume of distribution of peripheral compartment: 181 (25.4) L
[7]; population mean, fixed
  Lag, lag time for absorption: 0.67 h (fixed)
[7]; same dose level
  lower bioavailability or systemic exposure in male than female patients: approximately 10%
[7]; total bilirubin increase from ULN to 1.5 × ULN
  predicted decrease in CL: 12%
[7]; total bilirubin increase from ULN to 2 × ULN
  predicted decrease in CL: 23%
[7]; total bilirubin increase from ULN to 2.5 × ULN
  predicted decrease in CL: 32%
